Laboratory results published in ChEMBL document CHEMBL1909046, “DrugMatrix in vitro pharmacology data”.

Experiments:
Glucocorticoid receptor = target: T1, Glucocorticoid receptor (Homo sapiens, UniProt P04150); experiment: biochemical
T1 sequence (P04150 whole entry): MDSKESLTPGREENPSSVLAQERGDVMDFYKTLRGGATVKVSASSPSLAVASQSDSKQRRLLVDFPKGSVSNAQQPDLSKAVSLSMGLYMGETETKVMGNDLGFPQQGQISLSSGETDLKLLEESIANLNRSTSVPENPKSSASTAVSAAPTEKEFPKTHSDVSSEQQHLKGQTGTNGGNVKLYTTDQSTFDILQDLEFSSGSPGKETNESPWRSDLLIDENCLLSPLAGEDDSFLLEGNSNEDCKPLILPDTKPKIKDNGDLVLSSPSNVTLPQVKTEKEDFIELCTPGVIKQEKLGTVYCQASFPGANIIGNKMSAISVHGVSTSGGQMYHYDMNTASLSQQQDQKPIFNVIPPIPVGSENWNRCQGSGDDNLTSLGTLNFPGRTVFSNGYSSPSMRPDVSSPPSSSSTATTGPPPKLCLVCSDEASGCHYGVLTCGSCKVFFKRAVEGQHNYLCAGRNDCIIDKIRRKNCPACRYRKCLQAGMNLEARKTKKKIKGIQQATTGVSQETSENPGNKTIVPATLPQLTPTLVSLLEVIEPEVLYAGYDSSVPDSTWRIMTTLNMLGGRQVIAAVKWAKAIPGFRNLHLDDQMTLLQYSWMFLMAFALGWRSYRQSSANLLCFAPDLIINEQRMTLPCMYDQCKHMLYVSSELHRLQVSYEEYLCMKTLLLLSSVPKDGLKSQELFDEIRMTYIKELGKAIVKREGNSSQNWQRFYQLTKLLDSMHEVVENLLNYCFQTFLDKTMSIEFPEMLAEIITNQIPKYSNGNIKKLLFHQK

Androgen receptor = target: T2, Androgen receptor (Rattus norvegicus, UniProt P15207)
T2 sequence (P15207 whole entry): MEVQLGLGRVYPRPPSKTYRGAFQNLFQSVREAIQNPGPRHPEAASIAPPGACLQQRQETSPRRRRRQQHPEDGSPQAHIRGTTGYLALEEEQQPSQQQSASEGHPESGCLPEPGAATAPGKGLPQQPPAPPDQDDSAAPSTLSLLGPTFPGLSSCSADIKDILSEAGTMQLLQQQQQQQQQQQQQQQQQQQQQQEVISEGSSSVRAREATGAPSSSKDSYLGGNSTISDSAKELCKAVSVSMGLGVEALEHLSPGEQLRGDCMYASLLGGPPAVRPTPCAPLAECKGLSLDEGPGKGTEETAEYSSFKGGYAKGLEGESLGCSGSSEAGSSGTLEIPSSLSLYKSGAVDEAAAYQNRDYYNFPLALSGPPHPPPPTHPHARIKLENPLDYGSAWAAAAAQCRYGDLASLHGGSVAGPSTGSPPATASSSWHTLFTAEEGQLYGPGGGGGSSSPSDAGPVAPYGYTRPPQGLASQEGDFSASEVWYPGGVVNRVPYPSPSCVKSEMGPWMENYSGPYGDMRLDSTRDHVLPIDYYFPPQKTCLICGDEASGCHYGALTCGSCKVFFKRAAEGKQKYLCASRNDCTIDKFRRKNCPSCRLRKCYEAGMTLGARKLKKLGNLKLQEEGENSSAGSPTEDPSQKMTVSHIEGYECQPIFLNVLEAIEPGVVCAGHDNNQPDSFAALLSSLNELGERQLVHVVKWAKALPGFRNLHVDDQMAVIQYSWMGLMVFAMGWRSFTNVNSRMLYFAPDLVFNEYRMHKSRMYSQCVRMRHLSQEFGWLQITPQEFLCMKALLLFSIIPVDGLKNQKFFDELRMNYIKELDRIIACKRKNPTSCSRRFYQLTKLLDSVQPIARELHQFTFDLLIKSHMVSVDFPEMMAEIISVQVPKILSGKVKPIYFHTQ

Cytochrome P450 3A4 = Cytochrome P450 3A4 (Homo sapiens, UniProt P08684)
Chain of Cytochrome P450 3A4 (P08684 whole entry): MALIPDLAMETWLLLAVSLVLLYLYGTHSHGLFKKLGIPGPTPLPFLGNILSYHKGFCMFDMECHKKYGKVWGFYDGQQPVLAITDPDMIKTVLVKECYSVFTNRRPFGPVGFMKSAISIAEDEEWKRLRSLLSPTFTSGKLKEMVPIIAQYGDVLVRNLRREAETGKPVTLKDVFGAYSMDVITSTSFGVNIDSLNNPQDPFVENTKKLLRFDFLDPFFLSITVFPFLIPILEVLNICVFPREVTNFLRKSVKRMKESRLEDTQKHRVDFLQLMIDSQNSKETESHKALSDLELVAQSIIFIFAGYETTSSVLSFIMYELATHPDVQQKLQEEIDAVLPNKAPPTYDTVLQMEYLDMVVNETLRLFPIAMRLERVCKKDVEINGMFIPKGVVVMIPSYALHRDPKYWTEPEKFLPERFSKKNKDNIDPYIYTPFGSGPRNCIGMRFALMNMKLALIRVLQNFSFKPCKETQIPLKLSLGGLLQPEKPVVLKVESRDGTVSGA

## CC(=O)O[C@]1(C(C)=O)CC[C@H]2[C@@H]3C[C@H](C)C4=CC(=O)CC[C@]4(C)[C@H]3CC[C@@]21C [MEDROXYPROGESTERONE ACETATE]
Glucocorticoid receptor
  IC50: 19 nM
  Ki: 8.64 nM

## CCOC(=O)C1=C(C)NC(C)=C(C(=O)OCC)C1c1ccccc1/C=C/C(=O)OC(C)(C)C [LACIDIPINE]
Androgen receptor
  IC50: 3920 nM
  Ki: 2610 nM

## CC[C@H](C)[C@@H](CO[C@@H](Cc1ccccc1)C(=O)N[C@@H](CCS(C)(=O)=O)C(=O)OC(C)C)NC[C@@H](N)CS
Cytochrome P450 3A4
  IC50: 3000 nM
